Data taken from paper PMC11203957, “Naphthoquinone-Quinolone Hybrids with Antitumor Effects on Breast Cancer Cell Lines—From the Synthesis to 3D-Cell Culture Effects” (International Journal of Molecular Sciences, 2024).

Experiments:
MDA-MB-231 cells [1] = experiment: Annexin V/PI apoptosis assay, MDA-MB-231; assay type: cell-based, human; conditions: 50 µM
Procedure: (§1) We investigated apoptosis induction through the annexin V/PI protocol, as described in Section 3. Doxorubicin, 1,4-naphthoquinone, and cisplatin were used as controls. […] For MDA-MB-231 cells (Figure 5B), the effects observed were more prominent at the concentrations tested.
(§2) For the apoptosis assay, the manufacturer’s instructions were followed (Dead Cell Apoptosis Kit with Annexin V for Flow Cytometry, Thermo Fisher Scientific, MA, USA). The cells were analyzed in a Countess II FL cell counter (Thermo Fisher Scientific, Waltham, MA, USA).
(§3) Figure 5 Naphthoquinone-quinolone hybrids induce apoptosis in MCF-7 (A) and MDA-MB-231 (B) cells at different levels.

MCF-7 [2] = experiment: Clonogenic assay, MCF-7; assay type: cell-based, human; conditions: 25 µM, 24 h treatment, about 14 days growth
Text: (§4) The clonogenic assay is an effective tool for investigating individual cells’ ability to form colonies. Tumor cells with the ability to generate an expanding family of descendants are clonogenic. Therefore, a clonogenic assay is a simple method to verify one of the important characteristics of cancer cells, which is the ability to detach from the site of origin and to form metastases in other locations. […] For instance, 90–99% of the tumor cells in FaDU tumors, a type of human squamous cell carcinoma observed in nude mice, are non-clonogenic. To achieve the main goal of cancer treatment, which is tumor eradication, it is necessary to inactivate all clonogenic cells through either cell killing or the induction of a permanent state of dormancy, thereby eliminating their clonogenic capacity. The assessment of the potential of a drug to achieve a curative outcome, i.e., effectively neutralizing clonogenic tumor cells, requires the utilization of experimental endpoints that accurately reflect the response of clonogenic cells. Clonogenic endpoints hold particular significance when novel anticancer agents are incorporated into curative therapeutic regimens, such as in combination with radiotherapy or chemotherapy. Thus, clonogenic assays were conducted for compounds 11a–f and 1,4-naphthoquinone.
(§5) Figure 6 The inhibition of colony formation by compounds 11a–f using MCF-7 (A,C) and MDA-MB-231 (B,D) cell lines. Cells were treated with derivatives 11a–f at 25 µM for 24 h. Subsequently, 400 cells were plated on 6-well plates for approximately 14 days. Then, cells were stained with crystal violet dye to visualize the colonies formed.

MDA-MB-231 = experiment: MTT cell viability assay, MDA-MB-231 (2D culture); assay type: cell-based, human; conditions: for IC50: Homo sapiens, MDA-MB-231, MTT, 24 h treatment, 2D culture, read-out: IC50 ± SEM MDA-MB-231; for SI IC50 MCF10A/ IC50 MDA-MB-231: selectivity index
Procedure: (§6) Our first approach to assessing the anticancer activity of the novel 1,4-naphthoquinone/4-quinolone conjugates 11a–f on breast cancer cells involved comparing their effects in the MTT cell viability assay to determine the half-maximal inhibitory concentration (IC50) in the 2D cell culture model. Doxorubicin and 1,4-naphthoquinone were used as controls. Concentration-response curves were obtained with the conjugates at concentrations ranging from 0 to 200 µM. […] This observation aligns with the structural characteristics of this derivative, which features the largest alkyl substituent at position R^1.
(§7) The IC50 values were calculated using GraphPad Prism v. 8.0.1, and the selectivity index was estimated as the ratio between the IC50 value of MCF10A/IC50 value of MDA-MB-231 or MCF-7 [33], for each compound.

MCF-7 [3] = experiment: MTT cell viability assay, MCF-7 (2D culture); assay type: cell-based, human; conditions: for IC50: Homo sapiens, MCF7, MTT, 24 h treatment, 2D culture, read-out: IC50 ± SEM MCF-7; for SI IC50 MCF10A/IC50 MCF-7: selectivity index
Procedure: as §6, §7

MCF10A = experiment: MTT cell viability assay, non-tumor MCF10A; conditions: Homo sapiens, MCF-10A, 24 h, read-out: IC50 ± SEM MCF10A
MDA-MB-231 cells [4] = experiment: Reversibility assay (MTT viability), MDA-MB-231; assay type: cell-based, human; conditions: 25 µM; 24 h, 24 + 24 h, 48 h
Procedure: (§8) Our next issue concerned the reversibility of the effects: whether they persisted through a longer time of treatment, or if they ceased after the removal of the treatments. To investigate this, we used each compound at 25 µM and treated the MCF-7 and MDA-MB-231 cells for 24 h and 48 h. The 48-h treatment group was further subdivided into two different categories: the first was treated for 24 h, after which the culture medium was replaced with fresh medium without the compound, and then incubated for an additional 24-h period (24 + 24 h). In the second category, cells were continuously exposed to the compound for the entire 48-h duration, without any handling during this period. Cell viability was assessed as the evaluation parameter. The results are shown in Figure 7A (MCF-7) and Figure 7B (MDA-MB-231). […] In MCF-7 cells, the effect observed is similar, with a lower intensity of apoptosis induction.
(§9) Figure 7 Reversibility assay: investigating the effects of treatment durability on cell viability of (A) MCF-7 cells and (B) MDA-MB-231 cells. Cells were treated in three different manners: (1) for 24 h, continuously; (2) for 24 h, followed by removal of the treatment and addition of fresh medium, then further cultivation for 24 h; and (3) for a total period of 48 h. Cell viability was measured using the MTT assay. * p < 0.05, Student’s t-test, n = 3.

MCF-7 cells [5] = experiment: Reversibility assay (MTT viability), MCF-7; assay type: cell-based, human; conditions: 25 µM; 24 h, 24 + 24 h, 48 h
Procedure: as §8, §9

MCF-7 spheroids = experiment: 3D-cell culture (spheroids), morphology and acid phosphatase viability, MCF-7; assay type: cell-based, human; conditions: 25 µM, 48 h
Text: 3D-cell cultures display features that resemble in vivo tumors: due to their tridimensional structure, cells are not provided with the same amounts of oxygen and nutrients in the center as on the surface, resulting in a gradient that leads to the formation of a necrotic core, similar to the in vivo tumor environment. In the 3D-cell culture model used here, spheroids are formed due to low interaction with the microplate bottom, promoted by its coating with agarose, and strong cell-to-cell interactions in MCF-7 cells, generating a finely compact and homogeneous spheroid. For MDA-MB-231 cells, the addition of collagen I is an extra stimulus necessary for spheroid stabilization. Spheroids were prepared and grown for 48 h and then treated with the compounds at 25 µM. After 48 h, morphological changes were observed, and their viabilities were measured as described in Section 3. The exposure to the compounds for 48 h promoted visible changes in the morphologies of spheroids for both cell lines when compared to the controls (Figure 8). […] While it is more complicated to imply changes in the proliferative (surface) region of the MDA-MB-231 spheroids (Figure 8B), they are observed together with morphological changes after treatment, making them appear more crumbly and lose their round shape. These findings are in line with the viability test, which detected a reduction in the viabilities for all of them, which is significant compared to the control (p < 0.05), except for 11a in MDA-MB-231 spheroids (Figure 8C,D). We should also highlight that the concentrations necessary for an effect on spheroids are expected to be higher when compared to 2D-cell culture models. Here, we observed changes using 25 µM of each compound, as performed in the other experiments.
The procedure was performed as described by Gong et al., with a few modifications. A total of 5000 cells per well were plated on 96-well plates with bottoms previously covered with 50 µL of a 1% agarose solution. The plates were then centrifuged at 300× g for 10 min. For MDA-MB-231 cells, collagen I from rat tail (Gibco) was added to a 3 µg/mL final concentration in the cell suspension. […] The cell spheroids/aggregates were treated with fresh medium added to the compounds and their viability was evaluated after 48 h. Spheroids were photographed with an inverted microscope Bel INV-100 (Bel Engineering, Monza, Italy) equipped with a digital camera.
To measure spheroids viability, this viability assay was performed following Friedrich et al.. The medium was removed from wells and spheroids were washed with PBS. Then, 100 µL of a solution containing 2 mg/mL p-nitrophenyl phosphate (PNPP), 0.1 M citric acid, and 0.1% (v/v) Triton X, pH 5.0 were added. […]

[6] = system: cervix adenocarcinoma (HeLa); parameters: method as in PMID 22406451; conditions: cited from earlier work
[7] = system: gastric cancer cells ACP03; parameters: method as in PMID 24858098; conditions: cited from earlier work
[8] = system: hepatocellular carcinoma (BEL7402); parameters: method as in PMID 22406451; conditions: cited from earlier work
MCF-7 cells [9] = experiment: Annexin V/PI apoptosis assay, MCF-7; assay type: cell-based, human; conditions: 50 µM
Procedure: as §1, §2, §3

topoisomerase II = system: topoisomerase II; parameters: method as in PMID 24858098; conditions: in vitro and in silico studies; cited from earlier work
MDA-MB-231 cells [10] = experiment: Clonogenic assay, MDA-MB-231; assay type: cell-based, human; conditions: 25 µM, 24 h treatment, about 14 days growth
Text: as §4, §5

Row | SMILES | apoptosis profile (annexin V/PI), MDA-MB-231 (MDA-MB-231 cells [1]) | colony formation, MCF-7 (MCF-7 [2]) | IC50 (MDA-MB-231) [µM] | SI IC50 MCF10A/ IC50 MDA-MB-231 (MDA-MB-231) | IC50 (MCF-7 [3]) [µM] | SI IC50 MCF10A/IC50 MCF-7 (MCF-7 [3]) | IC50 (MCF10A) [µM] | duration and reversibility of the effect on cell viability, MDA-MB-231 (MDA-MB-231 cells [4]) | duration and reversibility of the effect on cell viability, MCF-7 (MCF-7 cells [5]) | melting point [°C] | spheroid morphology, MCF-7 (MCF-7 spheroids) | IC50 [6] [µM] | IC50 [7] [µM] | IC50 [8] [µM] | early apoptosis induction (annexin V/PI), MCF-7 (MCF-7 cells [9]) | topoisomerase II activity inhibition (topoisomerase II) | colony formation, MDA-MB-231 (MDA-MB-231 cells [10])
1 | CCCCCn1cc(C(=O)OCC)c(=O)c2cc(C3=CC(=O)c4ccccc4C3=O)ccc21 [Compound 11c, Ethyl 6-(1,4-dioxo-1,4-dihydronaphthalen-2-yl)-4-oxo-1-pentyl-1,4-dihydroquinoline-3-carboxylate] | induces apoptosis | most effective | 16.4 ± 1.1 | 0.62 ± 0.12 | 32.8 ± 1.1 | 0.31 ± 0.11 | 10.2 ± 1.1 | not capable of sustaining the antitumor effect after 48 h of treatment | short effect |  |  |  |  |  |  |  | 
2 | CCCCCn1cc(C(=O)O)c(=O)c2cc(C3=CC(=O)c4ccccc4C3=O)ccc21 [Compound 11f, 6-(1,4-dioxo-1,4-dihydronaphthalen-2-yl)-4-oxo-1-pentyl-1,4-dihydroquinoline-3-carboxylic acid] |  | most effective | 24.1 ± 1.1 | 0.29 ± 0.16 | 65.7 ± 1.1 | 0.11 ± 0.16 | 6.92 ± 1.1 |  |  | > 300 |  |  |  |  |  |  | 
3 | COc1cccc2c1C(=O)c1c(O)c3c(c(O)c1C2=O)C[C@@](O)(C(=O)CO)C[C@@H]3O[C@H]1C[C@H](N)[C@H](O)[C@H](C)O1 [Doxorubicin, reference compound] | effects similar to those seen on MCF-7 cells |  | 2.76 ± 1.2 | 0.54 ± 0.10 | 14.2 ± 1.1 | 0.10 ± 0.09 | 1.49 ± 1.3 |  |  |  | changes in the morphology | 21.1 ± 1.9 | 0.274 | 19.3 ± 1.2 | shows early apoptosis but also shows late apoptosis/necrosis in a great proportion |  | 
4 | O=C(Nc1cc(Cl)ccc1Cl)c1c[nH]c2ccc(Cl)cc2c1=O [Compound 2b] |  |  |  |  |  |  |  |  |  |  |  |  | 5.18 |  |  | able to inhibit topoisomerase II activity | 
5 | CCCCCCCCC/C=C\CCCCc1cc(=O)c2ccccc2n1C [Compound 3] |  |  |  |  |  |  |  |  |  |  |  | 18.5 ± 1.2 |  | 15.8 ± 1.4 |  |  | 
6 | O=C1C=CC(=O)c2ccccc21 [1,4-Naphthoquinone, 1,4-naphthoquinone, reference compound] |  | Significant reductions in colony formation | 19.3 ± 1.1 | 0.46 ± 0.14 | 29.5 ± 1 | 0.30 ± 0.13 | 8.78 ± 1.1 | irreversible effect | irreversible effect |  | changes in the morphology |  |  |  | comparable |  | Significant reductions in colony formation
7 | CCOC(=O)c1cn(Cc2ccccc2)c2ccc(C3=CC(=O)c4ccccc4C3=O)cc2c1=O [Compound 11b, Ethyl 1-benzyl-6-(1,4-dioxo-1,4-dihydronaphthalen-2-yl)-4-oxo-1,4-dihydroquinoline-3-carboxylate] |  |  | 15.1 ± 1 | 0.71 ± 0.14 | 19.4 ± 1.1 | 0.55 ± 0.13 | 10.7 ± 1.3 |  |  |  |  |  |  |  | comparable |  | 
8 | N.N.[Cl][Pt][Cl] [cisplatin] | lower effect |  |  |  |  |  |  |  |  |  |  |  |  |  | comparable |  | 
9 | CCn1cc(C(=O)O)c(=O)c2cc(C3=CC(=O)c4ccccc4C3=O)ccc21 [Compound 11d, 6-(1,4-dioxo-1,4-dihydronaphthalen-2-yl)-1-ethyl-4-oxo-1,4-dihydroquinoline-3-carboxylic acid] |  |  | 20.1 ± 1.1 | 1.07 ± 0.08 | 25.1 ± 1.2 | 0.85 ± 0.07 | 21.5 ± 1.2 |  |  | > 300 | changes in the morphology |  |  |  |  |  | most effective
10 | Cc1ccc(NC(=O)c2c[nH]c3ccc(Cl)cc3c2=O)cc1 [Compound 2a] |  |  |  |  |  |  |  |  |  |  |  |  | 1.92 |  |  | able to inhibit topoisomerase II activity | 
